According to patent publication US6461997B1, “Triazole sulfones having herbicidal activity” (Monsanto Technology LLC, priority 1999, dated 2002):

Key:
SOLNI (black nightshade) = experiment: Pre-plant incorporated (PPI) herbicidal activity, warm season; type: in vivo, Solanum nigrum
How it was run: (§1)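 Cool-season species were held at 18/13° C in greenhouse or growth chamber, warm-season ones at 30/21° C in greenhouse. Test compound had been sprayed onto cover soil, mixed, and applied over the seeds. Percent inhibition against untreated pots was recorded about 14 days post-treatment.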

AMARE (redroot pigweed) = experiment: Pre-emergence herbicidal activity, warm season; type: in vivo, Amaranthus retroflexus; details: GR80 = lowest tested rate (300, 100, 30, 10 g/ha) with 80% or greater inhibition; approx. 14 days after treating; 30/21° C.
How it was run: (§2)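 GR80 values derive from percent inhibition relative to untreated plants, read roughly 14 days after sowing and pre-emergence soil-surface treatment (compound in 50:50 acetone/water; rates typically 10, 30, 100, 300 g/ha). Warm-season weeds grew at 30/21° C day/night, cool-season ones at 18/13° C; an asterisk marks activity without reaching 80% at the highest rate.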

rice (ORYSA) = experiment: Selectivity test, PPI, warm season crop; type: in vivo, Oryza sativa; details: PPI application
How it was run: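 Percent inhibition relative to untreated controls, assessed roughly 14 days post-planting. Seeds were covered with a soil layer into which solvent-borne compound had been sprayed and mixed. Plants were then grown at 30/21° C. (warm season) or 18/13° C. (cool season) day/night regimes.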

POROL (common purslane) = experiment: Pre-emergence herbicidal activity, warm season; type: in vivo, Portulaca oleracea; details: GR80 = lowest tested rate (300, 100, 30, 10 g/ha) with 80% or greater inhibition; approx. 14 days after treating; 30/21° C.
How it was run: as §2

ABUTH (velvetleaf) = experiment: Pre-plant incorporated (PPI) herbicidal activity, warm season; type: in vivo, Abutilon theophrasti
How it was run: as §1

[1] = tested on: LAMPU (purple deadnettle); experiment: Pre-plant incorporated (PPI) herbicidal activity, cool season; type: in vivo, Lamium purpureum
How it was run: as §1

STEME (common chickweed) = experiment: Pre-emergence herbicidal activity, cool season; type: in vivo, Stellaria media; details: lowest tested rate with 80% or greater inhibition; rates 300, 100, 30, 10 g/ha; about 14 days
How it was run: as §2

SORVU (shattercane) = experiment: Pre-plant incorporated (PPI) herbicidal activity, warm season; type: in vivo, Sorghum vulgare
How it was run: as §1

ECHCG (barnyardgrass) = experiment: as above; type: in vivo, Echinochloa crus-galli
How it was run: as §1

[2] = pre-plant incorporated, GR80 = lowest tested rate with 80% or greater inhibition, approx. 14 days after treating, 30/21° C.
[3] = pre-plant incorporated, lowest tested rate with 80% or greater inhibition, about 14 days

CCN(CC)C(=O)n1cnc(S(=O)(=O)C(F)(F)SC)n1 [Example 9]
Percent inhibition SOLNI (SOLNI (black nightshade); PPI application, 30 g/ha): 95% | Percent inhibition SOLNI (SOLNI (black nightshade); PPI application, 100 g/ha): 100% | Percent inhibition SOLNI (SOLNI (black nightshade); PPI application, 300 g/ha): 100% | Percent inhibition SOLNI (SOLNI (black nightshade); PPI application, 900 g/ha): 99% | Pre-emergence activity (GR80) AMARE (AMARE (redroot pigweed)): 300 g/ha | Percent inhibition ORYSA (rice (ORYSA); 30 g/ha): 0% | Percent inhibition ORYSA (rice (ORYSA); 100 g/ha): 0% | Percent inhibition ORYSA (rice (ORYSA); 300 g/ha): 70% | Percent inhibition ORYSA (rice (ORYSA); 900 g/ha): 95% | Pre-emergence activity (GR80) POROL (POROL (common purslane)): 300 g/ha | Percent inhibition ABUTH (ABUTH (velvetleaf); PPI application, 30 g/ha): 0% | Percent inhibition ABUTH (ABUTH (velvetleaf); PPI application, 100 g/ha): 0% | Percent inhibition ABUTH (ABUTH (velvetleaf); PPI application, 300 g/ha): 60% | Percent inhibition ABUTH (ABUTH (velvetleaf); PPI application, 900 g/ha): 90% | Percent inhibition LAMPU ([1]; weed, PPI application, 30 g/ha): 0% | Percent inhibition LAMPU ([1]; weed, PPI application, 100 g/ha): 40% | Percent inhibition LAMPU ([1]; weed, PPI application, 300 g/ha): 100% | Percent inhibition LAMPU ([1]; weed, PPI application, 900 g/ha): 95% | Pre-emergence activity GR80, STEME (STEME (common chickweed)): 300 g/ha | Percent inhibition SORVU (SORVU (shattercane); PPI application, 30 g/ha): 60% | Percent inhibition SORVU (SORVU (shattercane); PPI application, 100 g/ha): 70% | Percent inhibition SORVU (SORVU (shattercane); PPI application, 300 g/ha): 100% | Percent inhibition SORVU (SORVU (shattercane); PPI application, 900 g/ha): 100% | Percent inhibition ECHCG (ECHCG (barnyardgrass); PPI application, 30 g/ha): 90% | Percent inhibition ECHCG (ECHCG (barnyardgrass); PPI application, 100 g/ha): 100% | Percent inhibition ECHCG (ECHCG (barnyardgrass); PPI application, 300 g/ha): 100% | Percent inhibition ECHCG (ECHCG (barnyardgrass); PPI application, 900 g/ha): 100%

C=CCC(F)(F)S(=O)(=O)c1ncn(C(=O)N(CC)CC)n1 [Example 17, 1-(N,N-diethylcarbamoyl)-3-[(1,1-difluoro-3-butenyl)sulfonyl]-1,2,4-triazole]
inhibition at 10 g/ha (SOLNI (black nightshade); Solanum nigrum, PPI application, 10 g/ha, read-out: Percent inhibition SOLNI): 0% | inhibition at 30 g/ha (SOLNI (black nightshade); Solanum nigrum, PPI application, 30 g/ha, read-out: Percent inhibition SOLNI): 0% | inhibition at 100 g/ha (SOLNI (black nightshade); Solanum nigrum, PPI application, 100 g/ha, read-out: Percent inhibition SOLNI): 80% | inhibition at 300 g/ha (SOLNI (black nightshade); Solanum nigrum, PPI application, 300 g/ha, read-out: Percent inhibition SOLNI): 70% | inhibition at 900 g/ha (SOLNI (black nightshade); Solanum nigrum, PPI application, 900 g/ha, read-out: Percent inhibition SOLNI): 100% | PPI activity (GR80) SOLNI (SOLNI (black nightshade); [2]): 30 g/ha | Pre-emergence activity (GR80) AMARE (AMARE (redroot pigweed)): 300 g/ha | inhibition at 10 g/ha (rice (ORYSA); Oryza sativa, 10 g/ha, read-out: Percent inhibition ORYSA): 0% | inhibition at 30 g/ha (rice (ORYSA); Oryza sativa, 30 g/ha, read-out: Percent inhibition ORYSA): 0% | inhibition at 100 g/ha (rice (ORYSA); Oryza sativa, 100 g/ha, read-out: Percent inhibition ORYSA): 0% | inhibition at 300 g/ha (rice (ORYSA); Oryza sativa, 300 g/ha, read-out: Percent inhibition ORYSA): 30% | inhibition at 900 g/ha (rice (ORYSA); Oryza sativa, 900 g/ha, read-out: Percent inhibition ORYSA): 60% | Pre-emergence activity (GR80) POROL (POROL (common purslane)): 300 g/ha | inhibition at 10 g/ha (ABUTH (velvetleaf); Abutilon theophrasti, PPI application, 10 g/ha, read-out: Percent inhibition ABUTH): 0% | inhibition at 30 g/ha (ABUTH (velvetleaf); Abutilon theophrasti, PPI application, 30 g/ha, read-out: Percent inhibition ABUTH): 0% | inhibition at 100 g/ha (ABUTH (velvetleaf); Abutilon theophrasti, PPI application, 100 g/ha, read-out: Percent inhibition ABUTH): 0% | inhibition at 300 g/ha (ABUTH (velvetleaf); Abutilon theophrasti, PPI application, 300 g/ha, read-out: Percent inhibition ABUTH): 40% | inhibition at 900 g/ha (ABUTH (velvetleaf); Abutilon theophrasti, PPI application, 900 g/ha, read-out: Percent inhibition ABUTH): 100% | PPI activity (GR80) ABUTH (ABUTH (velvetleaf); [2]): 100 g/ha | inhibition at 10 g/ha ([1]; Lamium purpureum, weed, PPI application, 10 g/ha, read-out: Percent inhibition LAMPU): 100% | inhibition at 30 g/ha ([1]; Lamium purpureum, weed, PPI application, 30 g/ha, read-out: Percent inhibition LAMPU): 100% | inhibition at 100 g/ha ([1]; Lamium purpureum, weed, PPI application, 100 g/ha, read-out: Percent inhibition LAMPU): 100% | inhibition at 300 g/ha ([1]; Lamium purpureum, weed, PPI application, 300 g/ha, read-out: Percent inhibition LAMPU): 100% | inhibition at 900 g/ha ([1]; Lamium purpureum, weed, PPI application, 900 g/ha, read-out: Percent inhibition LAMPU): 100% | PPI activity GR80, LAMPU [1, 3]: 30 g/ha | Pre-emergence activity GR80, STEME (STEME (common chickweed)): 100 g/ha | inhibition at 10 g/ha (SORVU (shattercane); Sorghum bicolor, PPI application, 10 g/ha, read-out: Percent inhibition SORVU): 20% | inhibition at 30 g/ha (SORVU (shattercane); Sorghum bicolor, PPI application, 30 g/ha, read-out: Percent inhibition SORVU): 70% | inhibition at 100 g/ha (SORVU (shattercane); Sorghum bicolor, PPI application, 100 g/ha, read-out: Percent inhibition SORVU): 100% | inhibition at 300 g/ha (SORVU (shattercane); Sorghum bicolor, PPI application, 300 g/ha, read-out: Percent inhibition SORVU): 100% | inhibition at 900 g/ha (SORVU (shattercane); Sorghum bicolor, PPI application, 900 g/ha, read-out: Percent inhibition SORVU): 100% | PPI activity GR80, SORVU (SORVU (shattercane); [3]): * (activity observed, at least at highest rate, but <80% inhibition) | inhibition at 10 g/ha (ECHCG (barnyardgrass); Echinochloa crus-galli, PPI application, 10 g/ha, read-out: Percent inhibition ECHCG): 40% | inhibition at 30 g/ha (ECHCG (barnyardgrass); Echinochloa crus-galli, PPI application, 30 g/ha, read-out: Percent inhibition ECHCG): 95% | inhibition at 100 g/ha (ECHCG (barnyardgrass); Echinochloa crus-galli, PPI application, 100 g/ha, read-out: Percent inhibition ECHCG): 100% | inhibition at 300 g/ha (ECHCG (barnyardgrass); Echinochloa crus-galli, PPI application, 300 g/ha, read-out: Percent inhibition ECHCG): 100% | inhibition at 900 g/ha (ECHCG (barnyardgrass); Echinochloa crus-galli, PPI application, 900 g/ha, read-out: Percent inhibition ECHCG): 100% | PPI activity GR80, ECHCG (ECHCG (barnyardgrass); [3]): 30 g/ha
